Structures are written as SMILES.

Assay [1] deals with T1, hFASN enzyme (full length) (Homo sapiens, UniProt P49327).
T1 construct: 10 μL hFASN enzyme (full length, 300 ng, purified in house); made in house
Briefly: Fatty Acid Synthase (FASN) inhibition scintillation proximity assay. It counts as biochemical. The following applies: for inhibition at 10 µM: read-out: Human FASN % inhibition @ 10 μM, 10 μM test compound; for IC50: read-out: Human FASN pIC50 (converted). The essentials: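 Read-out relies on hydrophobic ³H-palmitate product, formed from ³H-acetyl-CoA and malonyl-CoA, binding streptavidin imaging beads, measured at 610±20 nm after at least 24 h. Full-length enzyme (300 ng) in phosphate buffer pH 7.5 with DTT; eight compound concentrations, 0.01–30 μM.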
(In general: In a scintillation proximity assay essentially only radioactivity close to the scintillant gives light.)

The subject of assay [2] is A2780 ovarian cells. Briefly: A2780 ovarian cell proliferation assay in lipid reduced medium, with palmitate (MTT). It counts as cell-based. To be noted: Homo sapiens, A2780, 96 h; read-out: pIC50 A2780 Ovarian Cell, With Palmitate (converted). The essentials: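 In this palmitate-supplemented format, compound dilutions (30 μM down to 0.01 μM) are added to cells in lipid-reduced serum with 25 μM palmitate, 0.2% fatty-acid-free BSA and 0.25% ethanol. After four days (96 h) MTT absorbance at 544 nm is recorded and fitted by minimum sum of squares.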

The test system of assay [3] is A2780 ovarian cells. In words: A2780 ovarian cell proliferation assay in lipid reduced medium, without palmitate (MTT). The following applies: Homo sapiens, A2780, 96 h; read-out: pIC50 A2780 Ovarian Cell, Without Palmitate (converted). The format is cell-based.
Assay [4] has as its system LNCaP-Vancouver prostate cells. In words: In vitro LNCaP Vancouver prostate cell proliferation assay in lipid reduced medium. The format is cell-based. The following applies: read-out: pIC50 LNCaP_Vancouver prostate cell (converted).
Assay [5] concerns PC-3M-Luc-C6 prostate cells. In words: In vitro PC-3M-Luc-C6 prostate cell proliferation assay in lipid reduced medium. It counts as cell-based. To be noted: 96 h, read-out: pIC50 PC-3M-Luc-C6 prostate cell (converted).
Assay [6] deals with Fatty Acid Synthase Keto-reductase Domain (FASN KR) (Homo sapiens, UniProt P49327). In words: Fatty Acid Synthase keto-reductase domain (FASN KR) inhibition, NADPH oxidation at 340 nm.
Sequence of Fatty Acid Synthase Keto-reductase Domain (FASN KR) (P49327 whole entry, the tested form may be a part): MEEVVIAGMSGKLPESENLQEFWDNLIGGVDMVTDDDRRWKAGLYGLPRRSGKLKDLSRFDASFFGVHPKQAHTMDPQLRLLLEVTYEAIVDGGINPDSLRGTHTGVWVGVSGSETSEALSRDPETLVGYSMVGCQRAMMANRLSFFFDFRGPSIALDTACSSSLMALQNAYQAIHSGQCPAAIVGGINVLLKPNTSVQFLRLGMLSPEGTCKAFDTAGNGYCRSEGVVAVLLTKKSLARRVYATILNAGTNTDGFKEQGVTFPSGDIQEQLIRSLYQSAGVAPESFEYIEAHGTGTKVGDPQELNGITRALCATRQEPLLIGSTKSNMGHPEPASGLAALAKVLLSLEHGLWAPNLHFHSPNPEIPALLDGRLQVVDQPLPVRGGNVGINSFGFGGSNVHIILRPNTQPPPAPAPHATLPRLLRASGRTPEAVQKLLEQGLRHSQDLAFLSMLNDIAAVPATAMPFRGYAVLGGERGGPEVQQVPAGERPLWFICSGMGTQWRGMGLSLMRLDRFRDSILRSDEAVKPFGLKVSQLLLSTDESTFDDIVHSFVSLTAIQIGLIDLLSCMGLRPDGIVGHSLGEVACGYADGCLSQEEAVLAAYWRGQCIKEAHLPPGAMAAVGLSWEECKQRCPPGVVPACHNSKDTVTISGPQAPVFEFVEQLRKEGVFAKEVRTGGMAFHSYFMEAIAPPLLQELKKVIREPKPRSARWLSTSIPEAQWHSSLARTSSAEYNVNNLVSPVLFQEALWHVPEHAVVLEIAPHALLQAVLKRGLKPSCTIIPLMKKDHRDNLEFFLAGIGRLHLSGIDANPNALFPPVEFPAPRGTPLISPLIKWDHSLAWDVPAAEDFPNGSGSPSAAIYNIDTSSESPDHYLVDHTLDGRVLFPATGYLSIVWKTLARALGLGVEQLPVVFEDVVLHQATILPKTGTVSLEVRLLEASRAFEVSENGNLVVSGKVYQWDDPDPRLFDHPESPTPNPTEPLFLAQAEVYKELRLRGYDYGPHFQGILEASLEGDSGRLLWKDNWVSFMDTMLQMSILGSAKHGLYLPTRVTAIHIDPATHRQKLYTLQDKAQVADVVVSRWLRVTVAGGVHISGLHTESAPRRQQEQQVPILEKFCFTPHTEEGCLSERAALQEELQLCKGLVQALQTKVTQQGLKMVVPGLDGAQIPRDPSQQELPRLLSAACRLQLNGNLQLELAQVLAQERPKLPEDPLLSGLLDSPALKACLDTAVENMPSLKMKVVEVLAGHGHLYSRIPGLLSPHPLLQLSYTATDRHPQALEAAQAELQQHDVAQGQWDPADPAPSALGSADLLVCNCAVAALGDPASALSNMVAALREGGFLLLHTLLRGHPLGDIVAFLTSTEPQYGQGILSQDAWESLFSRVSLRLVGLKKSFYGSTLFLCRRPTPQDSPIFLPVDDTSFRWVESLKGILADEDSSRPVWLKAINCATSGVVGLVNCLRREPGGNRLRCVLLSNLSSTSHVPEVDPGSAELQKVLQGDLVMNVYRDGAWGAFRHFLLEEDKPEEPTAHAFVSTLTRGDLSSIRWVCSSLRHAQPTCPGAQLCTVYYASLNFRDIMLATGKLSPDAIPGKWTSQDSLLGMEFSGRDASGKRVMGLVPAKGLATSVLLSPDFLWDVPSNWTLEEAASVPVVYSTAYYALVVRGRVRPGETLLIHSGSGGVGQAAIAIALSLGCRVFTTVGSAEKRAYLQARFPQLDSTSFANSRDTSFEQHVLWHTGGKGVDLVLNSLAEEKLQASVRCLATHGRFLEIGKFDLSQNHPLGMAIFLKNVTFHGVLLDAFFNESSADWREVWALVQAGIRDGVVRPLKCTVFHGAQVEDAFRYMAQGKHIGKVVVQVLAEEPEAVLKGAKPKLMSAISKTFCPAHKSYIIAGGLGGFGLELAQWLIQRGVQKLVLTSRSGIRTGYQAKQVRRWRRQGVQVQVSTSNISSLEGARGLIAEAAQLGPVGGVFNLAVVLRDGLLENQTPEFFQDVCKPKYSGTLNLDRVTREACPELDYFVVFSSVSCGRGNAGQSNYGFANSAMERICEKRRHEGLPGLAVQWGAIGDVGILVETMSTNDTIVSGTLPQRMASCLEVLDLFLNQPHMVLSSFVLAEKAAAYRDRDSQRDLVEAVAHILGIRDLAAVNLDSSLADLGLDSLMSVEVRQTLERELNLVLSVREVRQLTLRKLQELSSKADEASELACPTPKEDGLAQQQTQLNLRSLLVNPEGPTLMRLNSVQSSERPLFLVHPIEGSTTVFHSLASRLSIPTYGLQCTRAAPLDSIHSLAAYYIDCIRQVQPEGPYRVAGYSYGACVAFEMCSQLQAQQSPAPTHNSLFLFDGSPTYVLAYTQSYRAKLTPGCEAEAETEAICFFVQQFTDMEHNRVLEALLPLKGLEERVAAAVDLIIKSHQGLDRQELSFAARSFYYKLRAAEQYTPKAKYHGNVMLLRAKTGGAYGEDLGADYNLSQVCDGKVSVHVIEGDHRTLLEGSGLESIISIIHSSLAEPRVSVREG
Procedure: After 20 minutes incubation at room temperature the plate was measured again (T2).
The decrease in absorbance was calculated as (Absorbance before incubation T1)−(Absorbance following incubation T2).
A plot of Controlmin versus test compound concentration was fitted to a 4-parameter logistic curve using a non-linear least squares regression method.

T1 sequence (P49327 whole entry): as the sequence (P49327 whole entry, the tested form may be a part) above

The inhibition is the change of the read-out against control, counted positive when it falls. As to `Cn1cnc2cc(-c3ccc(C4=NC5(CC5)C(=O)N4CC4CN(C(=O)C5(C)CC5)C4)c(F)c3)ccc21` [compound 378, 5-(2-fluoro-4-(1-methyl-1H-benzo[d]imidazol-5-yl)phenyl)-6-((1-(1-methylcyclopropanecarbonyl)azetidin-3-yl)methyl)-4,6-diazaspiro[2.4]hept-4-en-7-one], the inhibition at 10 µM in assay [1] was found to be 100%. In addition, the IC50 was 38.9 nM in assay [1]; over 10000 nM in the assay with A2780 ovarian cells [2]; about 5.13 nM in the assay on A2780 ovarian cells [3]; 74.1 nM in assay [4]; 10.5 nM in assay [5]; 45.7 nM in assay [6].

For `Cn1cc(-c2ccc(-c3ccc(C4=NC5(CC5)C(=O)N4C[C@@H]4CCN(C(=O)C5(O)CC5)C4)c(F)c3)cc2)cn1` [compound 379, (R)-5-(3-fluoro-4′-(1-methyl-1H-pyrazol-4-yl)-[1,1′-biphenyl]-4-yl)-6-((1-(1-hydroxycyclopropanecarbonyl)pyrrolidin-3-yl)methyl)-4,6-diazaspiro[2.4]hept-4-en-7-one], in assay [1], the inhibition at 10 µM is 102%. For the same compound, the IC50 in assay [1] was 20 nM; with A2780 ovarian cells [2] it was over 10000 nM; with A2780 ovarian cells [3], about 1.07 nM; in assay [4], 5.01 nM; in assay [5], about 2.45 nM; in assay [6] it was 27.5 nM.

For the compound `COc1cccc2ccc(-c3ccc(C4=NC5(CC5)C(=O)N4CC4CN(C(=O)C5CC5)C4)c(F)c3)cc12` [compound 380, 6-((1-(cyclopropanecarbonyl)azetidin-3-yl)methyl)-5-(2-fluoro-4-(8-methoxynaphthalen-2-yl)phenyl)-4,6-diazaspiro[2.4]hept-4-en-7-one], the inhibition at 10 µM in assay [1] worked out at 100%. The IC50 in assay [1] was 66.1 nM; in the assay on A2780 ovarian cells [2], over 10000 nM; in the assay on A2780 ovarian cells [3] it was 132 nM; in assay [4], 1150 nM; in assay [5], 309 nM; in assay [6], 95.5 nM.

For the compound `O=C(N1CC[C@@H](CN2C(=O)C3(CC3)N=C2c2ccc(-c3ccc4cc(F)ccc4c3)cc2F)C1)C1(O)CC1` [compound 381, (R)-5-(2-fluoro-4-(6-fluoronaphthalen-2-yl)phenyl)-6-((1-(1-hydroxycyclopropanecarbonyl)pyrrolidin-3-yl)methyl)-4,6-diazaspiro[2.4]hept-4-en-7-one], the inhibition at 10 µM in assay [1] was determined as 98%. Further, the IC50 was 22.9 nM in assay [1]; over 10000 nM with A2780 ovarian cells [2]; about 2.51 nM in the assay with A2780 ovarian cells [3]; 10.5 nM in assay [4]; 1.91 nM in assay [5]; 35.5 nM in assay [6].

Regarding `Cn1cc(-c2ccc(-c3ccc(C4=NC5(CC5)C(=O)N4CC4CN(C(=O)C5(O)CC5)C4)c(F)c3)cc2)cn1` [compound 382, 5-(3-fluoro-4′-(1-methyl-1H-pyrazol-4-yl)-[1,1′-biphenyl]-4-yl)-6-((1-(1-hydroxycyclopropanecarbonyl)azetidin-3-yl)methyl)-4,6-diazaspiro[2.4]hept-4-en-7-one], the inhibition at 10 µM in assay [1] amounted to 99%. The IC50 is 25.1 nM in assay [1]; over 10000 nM with A2780 ovarian cells [2]; about 6.76 nM with A2780 ovarian cells [3]; 55 nM in assay [4]; 26.9 nM in assay [5]; 66.1 nM in assay [6].

As to `O=C(N1CC(CN2C(=O)C3(CC3)N=C2c2ccc(-c3ccc4cc(Cl)ccc4c3)cc2F)C1)C1(O)CC1` [compound 383, 5-(4-(6-chloronaphthalen-2-yl)-2-fluorophenyl)-6-((1-(1-hydroxycyclopropanecarbonyl)azetidin-3-yl)methyl)-4,6-diazaspiro[2.4]hept-4-en-7-one], the inhibition at 10 µM in assay [1] stood at 102%. In addition, the IC50 in assay [1] was 24 nM; in the assay on A2780 ovarian cells [2], about 4680 nM; in the assay on A2780 ovarian cells [3], 10.5 nM; in assay [4] it was 50.1 nM; in assay [5], about 18.2 nM; in assay [6], 61.7 nM.

As for `O=C(N1CC(CN2C(=O)C3(CC3)N=C2c2ccc(-c3ccc4ccc(F)cc4c3)cc2F)C1)C1(O)CC1` [compound 384, 5-(2-fluoro-4-(7-fluoronaphthalen-2-yl)phenyl)-6-((1-(1-hydroxycyclopropanecarbonyl)azetidin-3-yl)methyl)-4,6-diazaspiro[2.4]hept-4-en-7-one], in assay [1], the inhibition at 10 µM was determined as 100%. For the same compound, the IC50 was 63.1 nM in assay [1]; 5250 nM in the assay with A2780 ovarian cells [2]; 72.4 nM with A2780 ovarian cells [3]; 832 nM in assay [4]; 166 nM in assay [5]; about 851 nM in assay [6].

`CC1(C(=O)N2CC(CN3C(=O)C4(CC4)N=C3c3ccc(-c4ccc5cc(C#N)ccc5c4)cc3F)C2)CC1` [compound 385, 6-(3-fluoro-4-(6-((1-(1-methylcyclopropanecarbonyl)azetidin-3-yl)methyl)-7-oxo-4,6-diazaspiro[2.4]hept-4-en-5-yl)phenyl)-2-naphthonitrile]: the inhibition at 10 µM in assay [1] was determined as 103%. For the same compound, the IC50 in assay [1] was 22.9 nM; in the assay on A2780 ovarian cells [2] it was about 2570 nM; with A2780 ovarian cells [3], about 3.63 nM; in assay [4], 18.6 nM; in assay [5], about 4.79 nM; in assay [6] it was 43.7 nM.

In the case of `O=C(C1CC1)N1CC[C@@H](CN2C(=O)C3(CC3)N=C2c2ccc(-c3ccc4occc4c3)cn2)C1` [compound 390, 5-[5-(1-Benzofuran-5-yl)pyridin-2-yl]-6-{[(3R)-1-(cyclopropylcarbonyl)pyrrolidin-3-yl]methyl}-4,6-diazaspiro[2.4]hept-4-en-7-one], the inhibition at 10 µM in assay [1] was determined as 99%. The IC50 in assay [1] was 324 nM; in the assay on A2780 ovarian cells [2] it was over 10000 nM; with A2780 ovarian cells [3], about 2630 nM; in assay [4], 2750 nM; in assay [5], 1480 nM; in assay [6], 676 nM.

On to `Cc1cc2cc(-c3ccc(C4=NC5(CC5)C(=O)N4CC4CN(C(=O)C5CC5)C4)c(C)c3)ccc2s1` [compound 391, 6-{[1-(Cyclopropylcarbonyl)azetidin-3-yl]methyl}-5-[2-methyl-4-(2-methyl-1-benzothiophen-5-yl)phenyl]-4,6-diazaspiro[2.4]hept-4-en-7-one], for which the inhibition at 10 µM in assay [1] came to 104%. The IC50 in assay [1] is 129 nM; in the assay on A2780 ovarian cells [2], over 10000 nM; in the assay on A2780 ovarian cells [3], 1170 nM; in assay [4], 1700 nM; in assay [5] it was 724 nM; in assay [6], 389 nM.

As for `Cc1cc(C2=NC3(CC3)C(=O)N2CC2CN(C(=O)C3CC3)C2)ccc1-c1ccc2sccc2c1` [compound 392, 5-[4-(1-Benzothiophen-5-yl)-3-methylphenyl]-6-{[1-(cyclopropylcarbonyl)azetidin-3-yl]methyl}-4,6-diazaspiro[2.4]hept-4-en-7-one], in assay [1], the inhibition at 10 µM came out at 91%. Moreover, the IC50 in assay [1] was 245 nM; in the assay with A2780 ovarian cells [2], over 10000 nM; in the assay with A2780 ovarian cells [3], 2510 nM; in assay [4] it was about 1700 nM; in assay [5] it was 1620 nM; in assay [6], 871 nM.

In the case of `Cc1cc(-c2ccc3oc(C)c(C)c3c2)ccc1C1=NC2(CC2)C(=O)N1CC1CN(C(=O)C2CC2)C1` [compound 398, 6-{[1-(Cyclopropylcarbonyl)azetidin-3-yl]methyl}-5-[4-(2,3-dimethyl-1-benzofuran-5-yl)-2-methylphenyl]-4,6-diazaspiro[2.4]hept-4-en-7-one], the inhibition at 10 µM in assay [1] came out at 102%. The IC50 in assay [1] is 263 nM; in the assay on A2780 ovarian cells [2] it was over 10000 nM; in the assay with A2780 ovarian cells [3] it was about 2290 nM; in assay [4] it was 2340 nM; in assay [5], 1740 nM; in assay [6], 955 nM.

For `Cc1oc2ccc(-c3ccc(C4=NC5(CC5)C(=O)N4C[C@@H]4CCN(C(=O)C5CC5)C4)cc3F)cc2c1C` [compound 399, 6-{[(3R)-1-(Cyclopropylcarbonyl)pyrrolidin-3-yl]methyl}-5-[4-(2,3-dimethyl-1-benzofuran-5-yl)-3-fluorophenyl]-4,6-diazaspiro[2.4]hept-4-en-7-one], in assay [1], the inhibition at 10 µM is 99%. Moreover, the IC50 is 363 nM in assay [1]; over 6170 nM in the assay with A2780 ovarian cells [2]; over 6170 nM with A2780 ovarian cells [3]; over 3020 nM in assay [4]; over 3020 nM in assay [5]; 1320 nM in assay [6].

Take `Nc1cccc(-c2ccc(C3=NC4(CC4)C(=O)N3C[C@@H]3CCN(C(=O)C4CC4)C3)cc2)n1` [compound 400, 5-[4-(6-Aminopyridin-2-yl)phenyl]-6-{[(3R)-1-(cyclopropylcarbonyl)pyrrolidin-3-yl]methyl}-4,6-diazaspiro[2.4]hept-4-en-7-one]: in assay [1], the inhibition at 10 µM worked out at 101%. Further, the IC50 in assay [1] is 195 nM; in the assay with A2780 ovarian cells [2], over 6170 nM; with A2780 ovarian cells [3], 229 nM; in assay [4], 1200 nM; in assay [5], 214 nM; in assay [6], 479 nM.
